# No end group written: not given here.
# Experiments:
# K-Ras protein = K-Ras protein (Homo sapiens, UniProt P01116); assay: photo-CIDNP enhanced NMR ligand-target binding with spinlock, small molecules vs K-Ras protein; conditions: 500 μM ligand, 25 μM fluorescein, 100 μM K-Ras, 450 nm, 1 W, 2 s, spinlock 200 ms
# [1] = biological target: PIN1 protein (peptidyl-prolyl cis-trans isomerase NIMA-interacting 1) (Homo sapiens, UniProt Q13526); assay: photo-CIDNP enhanced NMR ligand-target binding, small molecules vs PIN1 protein; conditions: 100 μM ligand, 25 μM fluorescein, 50 μM PIN1 (ligand 3-4: 25 μM ligand, 15 μM fluorescein, 25 μM PIN1), 450 nm, 1 W, 2 s
# PIN1 protein = PIN1 protein (Homo sapiens, UniProt Q13526); assay: prior knowledge / verification of PIN1 binding (Potter et al. 2010; verification); conditions: method of verification not stated
# PDZ protein domain [2] = assay: photo-CIDNP enhanced NMR ligand-target binding, peptides vs PDZ protein domain (sample A vs B); conditions: 100 μM peptide, 25 μM fluorescein, PDZ 100 μM, 450 nm, 1 W, 4 s, no spin lock
# PDZ protein domain [3] = assay: photo-CIDNP NMR titration for dissociation constant of peptide ligand to PDZ protein domain; assay type: binding; conditions: 47 μM peptide, 25 μM fluorescein, series of PDZ concentrations and irradiation times, 450 nm, fit of equations (7) and (6)
# PDZ protein domain [4] = assay: photo-CIDNP enhanced 1H NMR titration, 47 µM peptide against a series of PDZ domain concentrations, fit of equations (7) and (6)
# Sequence of PIN1 protein (peptidyl-prolyl cis-trans isomerase NIMA-interacting 1) (Q13526 whole entry, species assumed): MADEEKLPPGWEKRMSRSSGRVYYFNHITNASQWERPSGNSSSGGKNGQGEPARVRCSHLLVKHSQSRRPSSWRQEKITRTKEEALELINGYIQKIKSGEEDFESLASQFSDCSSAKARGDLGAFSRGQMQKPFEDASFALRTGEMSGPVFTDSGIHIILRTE
# Sequence of PIN1 protein (Q13526 whole entry, species assumed, the tested form may be a part): as the sequence (Q13526 whole entry, species assumed) above
molecule,measurement,setting,value
5 N-(Furan-2-ylmethyl)-1H-benzimidazol-2-amine)-imidazole-4-carboxylic acid [ligand 4-1],binding to the target K-Ras (signal modified in presence of target),K-Ras protein,bound to the target K-Ras
"Cc1ccc2[nH]cc(C(=O)O)c2c1 [ligand 3-2, 5-methyl-indole-3-carboxylic acid]",binding to the target PIN1 (signal modified in presence of target),[1],bound to the target PIN1
"N[C@@H](Cc1c[nH]c2ccccc12)C(=O)O [ligand 3-3, tryptophan]",binding to the target PIN1 (signal modified in presence of target),[1],did not bind
same,verification of binding to PIN1,PIN1 protein,verified to not bind to PIN1
"Cc1cccc(-c2nc(C(=O)O)c(C)[nH]2)c1 [ligand 3-1, 5-methyl-2-(3-methylphenyl)-imidazole-4-carboxylic acid]",binding to the target PIN1 (signal modified in presence of target),[1],bound to the target PIN1
WVSAV-NH2 [Peptide 4],binding to the target PDZ (signal modified in presence of target),PDZ protein domain [2],did not bind
WEQLT (Peptide 3),binding to the target PDZ (signal modified in presence of target),PDZ protein domain [2],did not bind
"COc1ccc(C)cc1NC(=O)Nn1cnnc1 [ligand 4-3, N-(2-methoxy-5-methylphenyl)-N′-4H-1,2,4-triazol-4-ylurea]",binding to the target K-Ras (signal modified in presence of target),K-Ras protein,bound to the target K-Ras
"O=C1NCCCc2c1oc1ccc(O)cc21 [ligand 3-4, 4-hydroxy-8-oxa-11-azatricyclo[7.5.0.0^2,7]tetradeca-1 (9),2,4,6-tetraen-10-one]",binding to the target PIN1 (signal modified in presence of target),[1],bound to the target PIN1
"O=C(O)Cc1c[nH]c2ccccc12 [ligand 4-4, indoleacetic acid]",binding to the target K-Ras (signal modified in presence of target),K-Ras protein,did not bind
WVSAV [Peptide 1],binding to the target PDZ (signal modified in presence of target),PDZ protein domain [2],binding to the target PDZ
same,Kd,PDZ protein domain [3],7 µM
WVSAV [Peptide 1 (WVSAV)],Kd,PDZ protein domain [4],7 µM
